Data from ChEMBL document CHEMBL5143659, “Concise synthesis and preliminary biological evaluation of new triazolylthioacetone derivatives bearing pyridine, pyrazine, and 3,4,5-trimethoxybenzyl fragment” (Bioorg Med Chem Lett, 2022).

Columns and labels:
HCT-116 [1] = assay: Antiproliferative activity against human HCT-116 cells assessed as inhibition of cell growth by MTT assay; type: functional, cell-based
HepG2 = assay: Antiproliferative activity against human HepG2 cells assessed as inhibition of cell growth by MTT assay; type: functional, cell-based
HCT-116 [2] = assay: Induction of cell cycle arrest in human HCT-116 cells assessed as accumulation of cells at G1/G0 phase at 3 uM incubated for 24 hrs by PI staining based flow cytometry analysis (reference value: 31.33 %); type: functional
Tubulin (Homo sapiens) = Tubulin (Homo sapiens) (UniProt P68371+Q9H4B7+P0DPH7+P68366+Q13509+Q71U36+P04350+Q3ZCM7+P07437+P68363+Q9BQE3+Q6PEY2+Q13885+Q9BVA1+Q9BUF5); assay: Inhibition of tubulin polymerization (unknown origin) at 10 uM measured every minute for 20 mins by fluorescence based assay relative to control; type: protein-complex assay
HCT-116 [3] = assay: Induction of cell cycle arrest in human HCT-116 cells assessed as accumulation of cells at G1/G0 phase at 0.75 uM incubated for 24 hrs by PI staining based flow cytometry analysis (reference value: 31.33 %); type: functional
HeLa = assay: Antiproliferative activity against human HeLa cells assessed as inhibition of cell growth by MTT assay; type: functional, cell-based
HCT-116 [4] = assay: Induction of cell cycle arrest in human HCT-116 cells assessed as accumulation of cells at S phase at 0.75 uM incubated for 24 hrs by PI staining based flow cytometry analysis (reference value: 47.56 %); type: functional
Tubulin = assay: Inhibition of tubulin polymerization (unknown origin) measured every minute for 20 mins by fluorescence based assay; type: protein-complex assay, Homo sapiens
HCT-116 [5] = assay: Induction of cell cycle arrest in human HCT-116 cells assessed as accumulation of cells at G1/G0 phase at 1.5 uM incubated for 24 hrs by PI staining based flow cytometry analysis (reference value: 31.33 %); type: functional
HCT-116 [6] = assay: Induction of cell cycle arrest in human HCT-116 cells assessed as accumulation of cells at G2/M phase at 0.75 uM incubated for 24 hrs by PI staining based flow cytometry analysis (reference value: 21.10 %); type: functional
HCT-116 [7] = assay: Induction of cell cycle arrest in human HCT-116 cells assessed as accumulation of cells at S phase at 3 uM incubated for 24 hrs by PI staining based flow cytometry analysis (reference value: 47.56 %); type: functional
HT-29 = assay: Antiproliferative activity against human HT-29 cells assessed as inhibition of cell growth by MTT assay; type: functional, cell-based
HCT-116 [8] = assay: Induction of cell cycle arrest in human HCT-116 cells assessed as accumulation of cells at S phase at 1.5 uM incubated for 24 hrs by PI staining based flow cytometry analysis (reference value: 47.56 %); type: functional
HCT-116 [9] = assay: Induction of cell cycle arrest in human HCT-116 cells assessed as accumulation of cells at G2/M phase at 1.5 uM incubated for 24 hrs by PI staining based flow cytometry analysis (reference value: 21.10 %); type: functional
[10] = Cytotoxicity against HEK293 cells assessed as inhibition of cell growth by MTT assay; type: toxicity, cell-based; details: human
HCT-116 [11] = assay: Induction of cell cycle arrest in human HCT-116 cells assessed as accumulation of cells at G2/M phase at 3 uM incubated for 24 hrs by PI staining based flow cytometry analysis (reference value: 21.10 %); type: functional
[12] = target: Vascular endothelial growth factor receptor 2 (Homo sapiens, UniProt P35968); assay: Inhibition of VEGFR2 (unknown origin) by kinase-glo luminescent assay
Vascular endothelial growth factor receptor 2, sequence (P35968 whole entry): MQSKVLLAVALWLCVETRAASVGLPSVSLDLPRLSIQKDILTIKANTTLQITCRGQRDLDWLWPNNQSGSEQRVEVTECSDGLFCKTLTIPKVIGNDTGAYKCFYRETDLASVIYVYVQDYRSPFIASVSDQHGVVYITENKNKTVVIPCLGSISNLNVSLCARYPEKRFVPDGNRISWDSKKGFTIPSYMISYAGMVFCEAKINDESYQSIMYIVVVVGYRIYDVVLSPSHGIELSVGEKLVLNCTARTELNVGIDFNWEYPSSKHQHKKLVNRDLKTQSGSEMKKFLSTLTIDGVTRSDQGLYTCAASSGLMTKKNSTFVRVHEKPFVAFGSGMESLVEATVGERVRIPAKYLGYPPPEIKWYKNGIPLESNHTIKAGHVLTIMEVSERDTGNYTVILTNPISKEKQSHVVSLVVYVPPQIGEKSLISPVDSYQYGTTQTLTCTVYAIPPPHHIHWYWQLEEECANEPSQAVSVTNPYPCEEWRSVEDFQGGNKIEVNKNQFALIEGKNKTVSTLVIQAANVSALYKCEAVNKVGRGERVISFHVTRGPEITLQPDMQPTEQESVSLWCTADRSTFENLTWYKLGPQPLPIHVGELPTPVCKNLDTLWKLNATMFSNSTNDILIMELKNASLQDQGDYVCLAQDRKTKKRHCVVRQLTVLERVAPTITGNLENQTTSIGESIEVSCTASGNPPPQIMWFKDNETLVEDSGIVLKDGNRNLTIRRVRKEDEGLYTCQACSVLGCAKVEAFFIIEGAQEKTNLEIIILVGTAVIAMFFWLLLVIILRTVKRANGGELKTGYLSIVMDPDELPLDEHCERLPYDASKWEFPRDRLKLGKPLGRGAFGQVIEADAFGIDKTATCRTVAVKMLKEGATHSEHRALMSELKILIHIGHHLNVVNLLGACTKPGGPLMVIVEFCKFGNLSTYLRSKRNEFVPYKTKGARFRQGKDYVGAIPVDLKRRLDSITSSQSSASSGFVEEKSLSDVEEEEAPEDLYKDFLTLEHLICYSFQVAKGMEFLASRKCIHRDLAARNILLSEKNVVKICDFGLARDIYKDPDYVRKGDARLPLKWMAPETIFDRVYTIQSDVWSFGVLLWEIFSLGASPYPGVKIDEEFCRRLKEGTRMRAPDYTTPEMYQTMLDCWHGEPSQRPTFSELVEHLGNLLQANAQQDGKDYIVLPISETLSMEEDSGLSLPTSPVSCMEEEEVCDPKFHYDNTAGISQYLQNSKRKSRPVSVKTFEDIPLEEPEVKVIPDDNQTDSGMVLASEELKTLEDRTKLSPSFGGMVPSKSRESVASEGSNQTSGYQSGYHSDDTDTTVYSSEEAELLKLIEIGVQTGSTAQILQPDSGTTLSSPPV

Work on `COc1ccc(/C=C\c2cc(OC)c(OC)c(OC)c2)cc1O` [COMBRETASTATIN A4] yielded an IC50 (HCT-116 [1]) of 1.1 µM.

For `O=C(CSc1nnc(-c2cnccn2)n1N1C(=O)c2ccccc2C1=O)c1ccc(C(F)(F)F)cc1`, the IC50 (HepG2) was > 100 µM.

In the case of `COc1cc(COc2nnc(SCC(=O)c3ccc(Cl)cc3)n2N2C(=O)c3ccccc3C2=O)cc(OC)c1OC`, the IC50 (HepG2) is reported as > 100 µM.

For `O=C(CSc1nnc(-c2ccccn2)n1N1C(=O)c2ccccc2C1=O)c1ccccc1`, the IC50 (HepG2) was > 100 µM.

For `COc1cc(Cc2nnc(SCC(=O)c3ccc(C)cc3)n2N2C(=O)c3ccccc3C2=O)cc(OC)c1OC`, the IC50 (HepG2) was > 100 µM.

For `COc1cc(Cc2nnc(SCC(C)=O)n2N2C(=O)c3ccccc3C2=O)cc(OC)c1OC`, the IC50 (HepG2) was > 100 µM.

For `COc1ccc(C(=O)CSc2nnc(-c3ccccn3)n2N2C(=O)c3ccccc3C2=O)cc1`, the IC50 (HepG2) was 90.3 µM.

With `COc1cc(Cc2nnc(SCC(=O)c3ccc(C)cc3)n2N)cc(OC)c1OC` the IC50 (HCT-116 [1]) was 1.46 µM, the IC50 (HepG2) was 3.65 µM and the Activity (HCT-116 [2]) was 11.13%. For the same compound, the inhibition (Tubulin (Homo sapiens)) was 36%, the Activity (HCT-116 [3]) was 29.3% and the IC50 (HeLa) was 9.02 µM. For the same compound, the Activity (HCT-116 [4]) was 36.97%, the IC50 (Tubulin) was 12.7 µM and the Activity (HCT-116 [5]) was 33.76%. It also gave an Activity (HCT-116 [6]) of 33.73%, an Activity (HCT-116 [7]) of 40.12% and an IC50 (HT-29) of 0.62 µM. For the same compound, the Activity (HCT-116 [8]) was 30.21%, the Activity (HCT-116 [9]) was 36.03% and the IC50 [10] was > 100 µM. For the same compound, the Activity (HCT-116 [11]) was 48.75%.

`COc1cc(COc2nnc(SCC(=O)c3ccc(C)cc3)n2N)cc(OC)c1OC` gave an IC50 (HCT-116 [1]) of 7.57 µM, an IC50 (HepG2) of 13.1 µM and an IC50 (HeLa) of 29.4 µM. The IC50 (HT-29) was 12.2 µM and the IC50 [10] was > 100 µM.

`COc1ccc(C(=O)CSc2nnc(Cc3cc(OC)c(OC)c(OC)c3)n2N2C(=O)c3ccccc3C2=O)cc1` gave an IC50 (HepG2) of 61.1 µM.

Work on `Cc1ccc(C(=O)CSc2nnc(-c3ccccn3)n2N2C(=O)c3ccccc3C2=O)cc1` yielded an IC50 (HepG2) of 65.2 µM.

`COc1ccc(C(=O)CSc2nnc(Cc3cc(OC)c(OC)c(OC)c3)n2N)cc1` showed an IC50 (HCT-116 [1]) of 4 µM, an IC50 (HepG2) of 16.2 µM and an IC50 (HeLa) of 11.8 µM. The IC50 (HT-29) was 10.8 µM and the IC50 [10] was > 100 µM.

Work on `O=C(CSc1nnc(-c2ccccn2)n1N1C(=O)c2ccccc2C1=O)c1ccc(C(F)(F)F)cc1` yielded an IC50 (HepG2) of 94.3 µM.

With `O=C(CSc1nnc(-c2cnccn2)n1N1C(=O)c2ccccc2C1=O)c1ccc(Cl)cc1` the IC50 (HepG2) was > 100 µM.

Compound `COc1cc(Cc2nnc(SCC(=O)c3ccc(Cl)cc3)n2N2C(=O)c3ccccc3C2=O)cc(OC)c1OC` has an IC50 (HepG2) of 94.8 µM.

For `COc1cc(Cc2nnc(SCC(=O)c3ccc(C(F)(F)F)cc3)n2N2C(=O)c3ccccc3C2=O)cc(OC)c1OC`, the IC50 (HepG2) was 35.3 µM.

Work on `COc1cc(COc2nnc(SCC(=O)c3ccc(C)cc3)n2N2C(=O)c3ccccc3C2=O)cc(OC)c1OC` yielded an IC50 (HepG2) of 80.3 µM.

For `CC(=O)CSc1nnc(-c2cnccn2)n1N1C(=O)c2ccccc2C1=O`, the IC50 (HepG2) was > 100 µM.

With `O=C(CSc1nnc(-c2ccccn2)n1N1C(=O)c2ccccc2C1=O)C1CC1` the IC50 (HepG2) was > 100 µM.

In the case of `COc1cc(Cc2nnc(SCC(=O)c3ccccc3)n2N2C(=O)c3ccccc3C2=O)cc(OC)c1OC`, the IC50 (HepG2) is reported as 71.3 µM.

For `CC(=O)CSc1nnc(-c2ccccn2)n1N1C(=O)c2ccccc2C1=O`, the IC50 (HepG2) was > 100 µM.

Work on `Cc1ccc(C(=O)CSc2nnc(-c3cnccn3)n2N2C(=O)c3ccccc3C2=O)cc1` yielded an IC50 (HepG2) of 89.7 µM.

In the case of `O=C(CSc1nnc(-c2cnccn2)n1N1C(=O)c2ccccc2C1=O)C1CC1`, the IC50 (HepG2) is reported as > 100 µM.

For `COc1cc(-c2nnc(SCC(=O)c3ccc(C)cc3)n2N2C(=O)c3ccccc3C2=O)cc(OC)c1OC`, the IC50 (HCT-116 [1]) was > 100 µM, the inhibition (Tubulin (Homo sapiens)) was 19% and the IC50 (HeLa) was 16.2 µM. For the same compound, the IC50 (HT-29) was 76.4 µM and the IC50 [10] was > 100 µM.

`COc1ccc(/C=N/n2c(SCC(=O)c3ccc(Cl)cc3)nnc2-c2cc3ccccc3[nH]2)cc1` gave an IC50 [12] of 0.071 µM.

Compound `O=C(CSc1nnc(-c2ccccn2)n1N1C(=O)c2ccccc2C1=O)c1ccc(Cl)cc1` has an IC50 (HepG2) of 78.3 µM.

In the case of `COc1cc(Cc2nnc(SCC(=O)C3CC3)n2N2C(=O)c3ccccc3C2=O)cc(OC)c1OC`, the IC50 (HepG2) is reported as > 100 µM.

For `COc1ccc(C(=O)CSc2nnc(OCc3cc(OC)c(OC)c(OC)c3)n2N)cc1`, the IC50 (HCT-116 [1]) was > 100 µM, the IC50 (HepG2) was 25.4 µM and the IC50 (HeLa) was > 100 µM. The IC50 (HT-29) was 67.6 µM and the IC50 [10] was > 100 µM.
